Test results reported in patent publication US8987195B2 (priority 2012, dated 2015).
pEC50, pIC50: −log10 of the molar value. Where two headings read alike, the source gives them in different places.

What was measured:
[1] = test system: HCV genotype 1b replicon; assay: HCV replicon assay, genotype 1b replicon EC50; assay type: cell-based, Hepatitis C virus; conditions: read-out: EC50 [gt-1b]
Outline: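 Stable neomycin phosphotransferase-encoding replicon cell lines, kept under G418 selection beforehand, were plated with a compound dilution series without G418 and incubated 24-48 hours. Replicon RNA was then quantified, or luciferase activity read. EC50 was calculated as percent of DMSO control by four-parameter fit.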

[2] = target: HCV NS3/4A protease genotype 1b (Hepatitis C virus genotype 1b, UniProt P26663); assay: HCV NS3/4A protease time-resolved fluorescence (TRF) assay, Ki against genotype 1b; assay type: biochemical; conditions: for pIC50: IC50 [gt-1b], NS3/4A protease TRF assay, genotype 1b enzyme 0.2 nM; for IC50: IC50 [gt-1b] (nM), NS3/4A genotype 1b, enzyme 0.2 nM
Outline: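 Enzyme was pre-incubated 30 min with inhibitor in HEPES pH 7.5 buffer (150 mM NaCl, 15% glycerol, 10 mM DTT). Reaction ran 2.5 h at room temperature with 25 nM europium TRF peptide substrate, read at ex 340/em 615 nm. Enzyme levels: 0.2 nM (1b), 0.4 nM (A156T), 0.025 nM (3a). Ki came from four-parameter IC50 via IC50=Ki(1+[S]/KM).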

[3] = Hepatitis C virus, HCV replicon, genotype 1b
[4] = Hepatitis C virus, genotype 1b replicon
[5] = Hepatitis C virus, HCV replicon, genotype 1b, K+ salt

CCc1nc2ccc(OCCN3CCOCC3)cc2c2c1O[C@]1(CC2)C[C@H]2C(=O)N[C@]3(C(=O)NS(=O)(=O)C4(C)CC4)C[C@H]3/C=C\CCCCC[C@H](NC(=O)O[C@@H]3C[C@@H]4C[C@@H]4C3)C(=O)N2C1 [Example 516, (1R,3r,5S)-bicyclo[3.1.0]hex-3-yl {(2R,6S,12Z,13aS,14aR,16aS)-5′-ethyl-14a-{[(1-methylcyclopropyl)sulfonyl]carbamoyl}-9′-[2-(morpholin-4-yl)ethoxy]-5,16-dioxo-1,1′,2′,5,6,7,8,9,10,11,13a,14,14a,15,16,16a-hexadecahydrospiro[cyclopropa[e]pyrrolo[1,2-a][1,4]diazacyclopentadecine-2,3′-pyrano[2,3-c]quinolin]-6-yl}carbamate]
pEC50 ([1]; Hepatitis C virus, HCV replicon, genotype 1b, HCl salt): 8.96 | pIC50 ([2]; HCl salt): 11.00

COc1ccc2nc(C(F)(F)F)c3c(c2c1)OC[C@]1(C[C@H]2C(=O)N[C@]4(C(=O)NS(=O)(=O)C5(C)CC5)C[C@@H]4/C=C/CCCCC[C@H](NC(=O)OC(C)(C)C)C(=O)N2C1)O3 [Example 517, tert-butyl [(2R,6S,12E,13aR,14aR,16aS)-9′-methoxy-14a-{[(1-methylcyclopropyl)sulfonyl]carbamoyl}-5,16-dioxo-5′-(trifluoromethyl)-1,5,6,7,8,9,10,11,13a,14,14a,15,16,16a-tetradecahydrospiro[cyclopropa[e]pyrrolo[1,2-a][1,4]diazacyclopentadecine-2,3′-[1,4]dioxino[2,3-c]quinolin]-6-yl]carbamate]
pEC50 [1, 3]: 8.05 | pIC50 [2]: 7.95

Cc1nc2cc(Cl)ccc2c2c1O[C@]1(CC2)C[C@H]2C(=O)N[C@]3(C(=O)NS(=O)(=O)C4(C)CC4)C[C@H]3/C=C\CCCCC[C@H](NC(=O)OCC(C)C)C(=O)N2C1 [Example 234, 2-methylpropyl [(2R,6S,12Z,13aS,14aR,16aS)-8′-chloro-5′-methyl-14a-{[(1-methylcyclopropyl)sulfonyl]carbamoyl}-5,16-dioxo-1,1′,2′,5,6,7,8,9,10,11,13a,14,14a,15,16,16a-hexadecahydrospiro[cyclopropa[e]pyrrolo[1,2-a][1,4]diazacyclopentadecine-2,3′-pyrano[2,3-c]quinolin]-6-yl]carbamate]
pEC50 ([1]; Hepatitis C virus, genotype 1b replicon, K+ salt): 8.35 | IC50 ([2]; K+ salt): 0.025 nM

Cc1nc2ccccc2c2c1O[C@]1(CC2)C[C@H]2C(=O)N[C@]3(C(=O)NS(=O)(=O)C4(C)CC4)C[C@H]3/C=C\CCCCC[C@H](NC(=O)OC(CN(C)S(C)(=O)=O)C(C)(C)C)C(=O)N2C1 (single isomer, unassigned) [Example 262]
pEC50 ([1]; genotype 1b replicon): 7.41 | IC50 [2]: 0.037 nM

CCc1nc2ccc(OC)cc2c2c1O[C@]1(CC2)C[C@H]2C(=O)N[C@]3(C(=O)NS(=O)(=O)C4(C)CC4)C[C@H]3/C=C\CCCCC[C@H](NC(=O)OC(C)(C)C)C(=O)N2C1 [Example 312, tert-butyl [(2R,6S,12Z,13aS,14aR,16aS)-5′-ethyl-9′-methoxy-14a-{[(1-methylcyclopropyl)sulfonyl]carbamoyl}-5,16-dioxo-1,1′,2′,5,6,7,8,9,10,11,13a,14,14a,15,16,16a-hexadecahydrospiro[cyclopropa[e]pyrrolo[1,2-a][1,4]diazacyclopentadecine-2,3′-pyrano[2,3-c]quinolin]-6-yl]carbamate]
pEC50 [1, 4]: 8.45 | IC50 [2]: 0.009 nM

CC1(OC(=O)N[C@H]2CCCCC/C=C\[C@@H]3C[C@@]3(C(=O)NS(=O)(=O)C3(C)CC3)NC(=O)[C@@H]3C[C@]4(CCc5c(c(C6CC6)nc6ccccc56)O4)CN3C2=O)CCC1 [Example 111, 1-methylcyclobutyl [(2R,6S,12Z,13aS,14aR,16aS)-5′-cyclopropyl-14a-{[(1-methylcyclopropyl)sulfonyl]carbamoyl}-5,16-dioxo-1,1′,2′,5,6,7,8,9,10,11,13a,14,14a,15,16,16a-hexadecahydrospiro[cyclopropa[e]pyrrolo[1,2-a][1,4]diazacyclopentadecine-2,3′-pyrano[2,3-c]quinolin]-6-yl]carbamate]
pEC50 [1, 4]: 9.16 | IC50 [2]: 0.011 nM

COc1ccc2nc(C(F)(F)F)c3c(c2n1)C(F)C[C@]1(C[C@H]2C(=O)N[C@]4(C(=O)NS(=O)(=O)C5(C)CC5)C[C@H]4/C=C\CCCCC[C@H](NC(=O)OC(C)(C)C)C(=O)N2C1)O3 (stereo partly drawn) [Example 33, tert-butyl ((2S,6S,13aS,14aR,16aS,Z)-10′-fluoro-2′-methoxy-14a-(((1-methylcyclopropyl)sulfonyl)carbamoyl)-5,16-dioxo-6′-(trifluoromethyl)-3,5,6,7,8,9,9′,10,10′, 11,13a,14,14a,15,16,16a-hexadecahydro-1H-spiro[cyclopropa[e]pyrrolo[1,2-a][1,4]diazacyclopentadecine-2,8′-pyrano[2,3-c][1,5]naphthyridin]-6-yl)carbamate]
pEC50 [1, 4]: 8.78 | IC50 [2]: 0.042 nM

COc1ccc2c3c(c(C4CC4)nc2c1)O[C@]1(CC3)C[C@H]2C(=O)N[C@]3(C(=O)NS(=O)(=O)C4(C)CC4)C[C@H]3/C=C\CCCCC[C@H](NC(=O)OC(C)C)C(=O)N2C1 [Example 137, propan-2-yl [(2R,6S,12Z,13aS,14aR,16aS)-5′-cyclopropyl-8′-methoxy-14a-{[(1-methylcyclopropyl)sulfonyl]carbamoyl}-5,16-dioxo-1,1′,2′,5,6,7,8,9,10,11,13a,14,14a,15,16,16a-hexadecahydrospiro[cyclopropa[e]pyrrolo[1,2-a][1,4]diazacyclopentadecine-2,3′-pyrano[2,3-c]quinolin]-6-yl]carbamate]
pEC50 [1, 4]: 8.77 | IC50 [2]: 0.025 nM

CCCOC(=O)N[C@H]1CCCCC/C=C\[C@@H]2C[C@@]2(C(=O)NS(=O)(=O)C2(C)CC2)NC(=O)[C@@H]2C[C@]3(CCc4c(c(C(F)F)nc5ccc(OC)cc45)O3)CN2C1=O [Example 475, propyl [(2R,6S,12Z,13aS,14aR,16aS)-5′-(difluoromethyl)-9′-methoxy-14a-{[(1-methylcyclopropyl)sulfonyl]carbamoyl}-5,16-dioxo-1,1′,2′,5,6,7,8,9,10,11,13a,14,14a,15,16,16a-hexadecahydrospiro[cyclopropa[e]pyrrolo[1,2-a][1,4]diazacyclopentadecine-2,3′-pyrano[2,3-c]quinolin]-6-yl]carbamate]
pEC50 [1, 5]: 8.62 | pIC50 ([2]; K+ salt): 11.30

Cc1nc2cc(Cl)ccc2c2c1O[C@]1(CC2)C[C@H]2C(=O)N[C@]3(C(=O)NS(=O)(=O)C4(C)CC4)C[C@H]3/C=C\CCCCC[C@H](NC(=O)OC3CCCC3)C(=O)N2C1 [Example 238, cyclopentyl [(2R,6S,12Z,13aS,14aR,16aS)-8′-chloro-5′-methyl-14a-{[(1-methylcyclopropyl)sulfonyl]carbamoyl}-5,16-dioxo-1,1′,2′,5,6,7,8,9,10,11,13a,14,14a,15,16,16a-hexadecahydrospiro[cyclopropa[e]pyrrolo[1,2-a][1,4]diazacyclopentadecine-2,3′-pyrano[2,3-c]quinolin]-6-yl]carbamate]
pEC50 [1, 4]: 8.11 | IC50 [2]: 0.02 nM

COc1ccc2nc(C(F)F)c3c(c2c1)CC[C@]1(C[C@H]2C(=O)N[C@]4(C(=O)NS(=O)(=O)C5(C)CC5)C[C@H]4/C=C\CCCCC[C@H](NC(=O)OCC(C)C)C(=O)N2C1)O3 [Example 440, 2-methylpropyl [(2R,6S,12Z,13aS,14aR,16aS)-5′-(difluoromethyl)-9′-methoxy-14a-{[(1-methylcyclopropyl)sulfonyl]carbamoyl}-5,16-dioxo-1,1′,2′,5,6,7,8,9,10,11,13a,14,14a,15,16,16a-hexadecahydrospiro[cyclopropa[e]pyrrolo[1,2-a][1,4]diazacyclopentadecine-2,3′-pyrano[2,3-c]quinolin]-6-yl]carbamate]
pEC50 [1, 5]: 8.70 | pIC50 ([2]; K+ salt): 10.80

COc1ccc2nc(C)c3c(c2c1)CC[C@]1(C[C@H]2C(=O)N[C@]4(C(=O)NS(=O)(=O)C5(C)CC5)C[C@H]4/C=C\CCCCC[C@H](NC(=O)OC4CC5CC(=O)OC5C4)C(=O)N2C1)O3 (stereo partly drawn) [Example 261, 2-oxohexahydro-2H-cyclopenta[b]furan-5-yl [(2R,6S,12Z,13aS,14aR,16aS)-9′-methoxy-5′-methyl-14a-{[(1-methylcyclopropyl)sulfonyl]carbamoyl}-5,16-dioxo-1,1′,2′,5,6,7,8,9,10,11,13a,14,14a,15,16,16a-hexadecahydrospiro[cyclopropa[e]pyrrolo[1,2-a][1,4]diazacyclopentadecine-2,3′-pyrano[2,3-c]quinolin]-6-yl]carbamate]
pEC50 [1, 4]: 6.72 | IC50 [2]: 0.008 nM

COc1ccc2nc(C)c3c(c2n1)CC[C@]1(C[C@H]2C(=O)N[C@]4(C(=O)NS(=O)(=O)C5(C)CC5)C[C@H]4/C=C\CCCCC[C@H](NC(=O)OC4(C)CCC4)C(=O)N2C1)O3 [Example 365, 1-methylcyclobutyl [(2R,6S,12Z,13aS,14aR,16aS)-2′-methoxy-6′-methyl-14a-{[(1-methylcyclopropyl)sulfonyl]carbamoyl}-5,16-dioxo-1,5,6,7,8,9,9′,10,10′,11,13a,14,14a,15,16,16a-hexadecahydrospiro[cyclopropa[e]pyrrolo[1,2-a][1,4]diazacyclopentadecine-2,8′-pyrano[2,3-c][1,5]naphthyridin]-6-yl]carbamate]
pEC50 [1, 3]: 8.31 | pIC50 [2]: 10.70
